US8895047B2, “Combined fibrinolytic and antimicrobial catheter and uses thereof” (priority 2007, dated 2014)

What was measured:
human urokinase enzyme = molecular target: T1, human urokinase enzyme (Homo sapiens, UniProt P00749); assay: uPA activity assay (chromogenic substrate) after incubation with antimicrobial agents; assay type: biochemical; conditions: for Urokinase activity in the presence of antimicrobial agent: concentrations up to 10 μg/mL, 24 hours at 37° C. with 88 units (0.5 μg) uPA in PBS, FIGS. 2 and 3
T1 construct: purchased American Diagnostica
Protocol: To check the compatibility of urokinase (uPA) and chlorhexidine acetate (CHA), human urokinase enzyme (American Diagnostica) at different concentrations (0, 0.05, 0.5, and 1.0 μg/mL) was incubated with CHA at concentrations between 0-10 μg/mL for 24 hours at 37° C. in phosphate buffered saline (PBS). Subsequently, urokinase activity was measured using uPA Activity Assay Kit (Chemicon). Samples were incubated with an assay buffer and a chromogenic substrate for uPA resulting in the formation of a colored complex followed by reading the absorbance on a spectrophotometer at 405 nm. In a 96 well plate, different combinations of chlorhexidine (CHX), gentian violet (GV), minocycline and rifampin were incubated at concentrations of 0, 1, 10 μg/mL, for 24 hours at 37° C., with 88 units (0.5 μg) of uPA in PBS. Urokinase activity was measured using uPA Activity Assay Kit as described earlier.

human tPA = molecular target: T2, human tPA (Homo sapiens, UniProt P00750); assay: tPA activity assay (chromogenic substrate) after incubation with antimicrobial agents; assay type: biochemical; conditions: concentrations up to 10 μg/mL, overnight at 37° C. with 50 units human tPA; FIGS. 5 and 6
T2 construct: purchased Sigma
T2 sequence (P00750 36-562): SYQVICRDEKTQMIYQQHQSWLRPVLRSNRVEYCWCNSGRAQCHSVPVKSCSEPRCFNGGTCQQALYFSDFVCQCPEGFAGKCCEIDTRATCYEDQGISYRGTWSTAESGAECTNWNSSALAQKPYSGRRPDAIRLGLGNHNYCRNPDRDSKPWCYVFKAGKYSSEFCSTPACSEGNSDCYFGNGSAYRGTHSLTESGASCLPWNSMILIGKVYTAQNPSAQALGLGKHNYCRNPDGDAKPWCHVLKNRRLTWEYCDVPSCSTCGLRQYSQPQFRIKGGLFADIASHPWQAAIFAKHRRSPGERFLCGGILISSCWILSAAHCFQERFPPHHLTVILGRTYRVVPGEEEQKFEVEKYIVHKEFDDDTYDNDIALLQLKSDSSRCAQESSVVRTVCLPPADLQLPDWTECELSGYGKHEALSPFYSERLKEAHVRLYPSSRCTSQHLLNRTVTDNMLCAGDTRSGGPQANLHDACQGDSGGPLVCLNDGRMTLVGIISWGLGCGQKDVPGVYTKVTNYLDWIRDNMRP
Protocol: Different combinations of CHX, GV, minocycline and rifampin (0, 1, 10 μg/mL) were incubated overnight with 50 units of human tPA (Sigma) at 37° C., in buffer (30 mM Tris-HCl, 30 mM Imidazole, 130 mM NaCl, 1% protease free albumin). Samples were incubated with the chromogenic substrate (Sigma); tPA activity was determined by the hydrolysis of the substrate being measured continuously at 405 nm for 5 min at 50 seconds intervals. A standard curve was generated and the units plotted against the slope of the hydrolysis reaction.

human streptokinase = molecular target: T3, human streptokinase (Streptococcus dysgalactiae subsp. equisimilis, UniProt P00779); assay: Streptokinase activity assay (S-2251 chromogenic substrate, plasminogen) after incubation with antimicrobial agents; assay type: biochemical; conditions: any concentration up to 10 μg/mL, overnight at 37° C. with 16.5 units streptokinase; FIG. 7
T3 construct: purchased Sigma
T3 sequence (P00779 27-440): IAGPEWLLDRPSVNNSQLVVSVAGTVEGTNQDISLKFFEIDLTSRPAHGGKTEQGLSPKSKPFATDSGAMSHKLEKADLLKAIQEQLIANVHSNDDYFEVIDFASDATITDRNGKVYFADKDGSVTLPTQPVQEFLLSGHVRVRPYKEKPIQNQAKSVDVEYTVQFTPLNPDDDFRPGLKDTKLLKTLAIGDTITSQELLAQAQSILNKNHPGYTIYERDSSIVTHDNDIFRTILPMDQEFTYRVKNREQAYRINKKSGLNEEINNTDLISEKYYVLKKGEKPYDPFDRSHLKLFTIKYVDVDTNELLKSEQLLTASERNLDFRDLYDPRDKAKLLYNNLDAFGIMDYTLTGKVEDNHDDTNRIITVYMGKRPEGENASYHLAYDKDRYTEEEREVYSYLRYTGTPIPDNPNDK
Protocol: In a 96 well plate, different combinations of chlorhexidine (0, 1, 10 μg/mL) and gentian violet (0, 1, 10 μg/mL) were incubated overnight with 16.5 units of human streptokinase (Sigma) at 37° C., in 10 mM Tris-HCl buffer containing 0.1M NaCl and 1 mg/mL albumin. Streptokinase activity was measured using a chromogenic substrate S-2251 (Chromogenix). Samples were incubated with 0.6 mM S-2251 and 0.1 U/ml plasminogen (Sigma) for one hour. Hydrolysis of the substrate was measured at 405 nm and a standard curve was generated with the units plotted against the slope of the hydrolysis reaction.

S. epidermidis = assay: Minimum inhibitory concentration of chlorhexidine acetate against S. epidermidis; assay type: cell-based
Protocol: FIG. 4. Chlorhexidine activity in the presence of urokinase. […] CHA MIC Control=urokinase in tris-buffered saline (TBS)+CHA+Mueller-Hinton broth (MHB); Growth Control=dimethyl sulfoxide (DMSO)+TBS+S. epidermidis+MHB; Negative Control=DMSO+TBS+MHB.
To determine if urokinase affects the antimicrobial efficacy of chlorhexidine, the following experiment was conducted. The minimum inhibitory concentration (MIC) of chlorhexidine acetate (CHA) against S. epidermidis is 0.5 ppm in the absence of urokinase. Absorbance above baseline on the plot in […] indicates growth of microbial organisms (i.e., inability to inhibit microbial growth). An increase in the MIC would be indicative of a reduction in the antimicrobial potency of CHA due to interference by Urokinase.

| Urokinase activity in the presence of CHA (human urokinase enzyme; CHA 0-10 μg/mL with uPA 0-1.0 μg/mL, 24 hours at 37° C. in PBS, CHA:uPA ratio 0.05 or higher, FIG. 1) | minimum inhibitory concentration (MIC) (S. epidermidis; in the absence of urokinase) [ppm] | MIC in the presence of Urokinase (S. epidermidis; presence of urokinase, FIG. 4) | Compound | Urokinase activity in the presence of antimicrobial agent (human urokinase enzyme) | tPA activity in the presence of antimicrobial agent (human tPA) | streptokinase activity in the presence of antimicrobial agent (human streptokinase) |
| --- | --- | --- | --- | --- | --- | --- |
|  |  |  | CO[C@H]1/C=C/O[C@@]2(C)Oc3c(C)c(O)c4c(O)c(c(/C=N/N5CCN(C)CC5)c(O)c4c3C2=O)NC(=O)/C(C)=C\C=C\[C@H](C)[C@H](O)[C@@H](C)[C@@H](O)[C@@H](C)[C@H](OC(C)=O)[C@@H]1C [rifampin] | not adversely affected | not affected |  |
|  |  |  | CN(C)c1ccc(C(=C2C=CC(=[N+](C)C)C=C2)c2ccc(N(C)C)cc2)cc1 [GV, gentian violet] | not adversely affected | not affected | unaffected |
| not affected | 0.5 | not affected | CC(=O)O.CC(=O)O.NC(=N\CCCCCC/N=C(N)/N=C(\N)Nc1ccc(Cl)cc1)/N=C(\N)Nc1ccc(Cl)cc1 [CHA, chlorhexidine acetate] |  |  |  |
|  |  |  | [H]/N=C(\N/C(=N/[H])NCCCCCCNC(=N)NC(=N)Nc1ccc(Cl)cc1)Nc1ccc(Cl)cc1 [CHX, chlorhexidine] | not adversely affected | not affected | unaffected |
